Patent publication US4098995A, “Polygalactosido-sucrose Poly(H-)sulfate salts” (American Cyanamid Company, priority 1976, dated 1978)
Several values for one entry are separate records, joined by “and”; a condition that tells them apart may be missing. Equal entries are not always repeated. Structures can show the parent of a compound that is named as a salt.

Columns and labels:
[1] = target: activated human C1 (Homo sapiens, UniProt P09871); assay: Test, Code 026 (C1 inhibitor); type: biochemical; conditions: serial two-fold dilution assay, higher well number indicates higher activity
Source text: (§1) An active inhibitor protects C2 from C1 and C4; (ii) Test, Code 035 (C3-C9 inhibitor) - This test determines the ability of the late components of human complement (C3-C9) to lyse EAC 142 in the presence of appropriate dilutions of the test compound. An active inhibitor protects EAC 142 from lysis by human C3-C9; (iii) Test, Code 036 (C-Shunt inhibitor) -- In this test human erythrocytes rendered fragile are lysed in autologous serum via the shunt pathway activated by cobra venom factor in the presence of appropriate dilutions of the test compound. Inhibition of the shunt pathway results in failure of lysis; (iv) Forssman Vasculitis Test -- Here, the well known complement dependent lesion, Forssman vasculitis, is produced in guinea pigs by intradermal injection of rabbit anti-Forssman antiserum. The lesion is measured in terms of diameter, edema and hemorrhage and the extent to which a combined index of these is inhibited by prior intraperitoneal injection of the test compound at 200 mg/kg is then reported, unless otherwise stated; (v) Forssman Shock Test -- Lethal shock is produced in guinea pigs by an i.v. injection of anti-Forssman antiserum and the harmonic mean death time of treated guinea pigs is compared with that of simultaneous controls; (vi) Complement Level Reduction Test -- In this test, the above dosed guinea pigs, or others, are bled for serum and the complement level is determined in undiluted serum by the capillary tube method of U.S. Pat. No. 3,876,376 and compared to undosed control guinea pigs; and (vii) Cap 50 Test -- Here, appropriate amounts of the test compound are added to a pool of guinea pig serum in vitro, after which the undiluted serum capillary tube assay referred to above is run. The concentration of compound inhibiting 50% is reported.
(§2) **Activity in wells, a serial dilution assay. Higher well numer indicates
(§3) higher activity. The serial dilutions are two-fold.

[2] = system: late components of human complement (C3-C9); assay: Test, Code 035 (C3-C9 inhibitor), lysis of EAC 142 by late complement components; type: cell-based; conditions: serial two-fold dilution assay; higher well number indicates higher activity
Source text: as §1, §2, §3

[3] = system: shunt pathway; assay: Test, Code 036 (C-Shunt inhibitor), lysis of fragile human erythrocytes via shunt pathway activated by cobra venom factor; type: cell-based; conditions: serial two-fold dilution assay, higher well number indicates higher activity
Source text: as §1, §2, §3

[4] = system: whole complement; assay: Complement Level Reduction Test in dosed guinea pigs (serum whole complement, capillary tube assay); type: in vivo, guinea pig; conditions: 200 mg/kg
[5] = literature; cited from earlier work
[6] = system: complement; assay: Complement inhibiting activity, tests disclosed herein
[7] = system: complement; conditions: literature; cited from earlier work

O=S(=O)(O)OC[C@H]1O[C@H](OC[C@H]2O[C@H](O[C@]3(COS(=O)(=O)O)O[C@H](COS(=O)(=O)O)[C@@H](OS(=O)(=O)O)[C@@H]3OS(=O)(=O)O)[C@H](OS(=O)(=O)O)[C@@H](OS(=O)(=O)O)[C@@H]2OS(=O)(=O)O)[C@H](OS(=O)(=O)O)[C@@H](OS(=O)(=O)O)[C@H]1OS(=O)(=O)O [Raffinose Poly(H-)sulfate Triethylamine Salt]
In Vitro Activity 026 (activity in wells) [1]: 10 wells and 9 wells | In Vitro Activity 035 [2]: N | In Vitro Activity 036 [3]: N

O=S(=O)(O)OC[C@H]1O[C@H](OC[C@H]2O[C@H](O[C@]3(COS(=O)(=O)O)O[C@H](COS(=O)(=O)O)[C@@H](OS(=O)(=O)O)[C@@H]3OS(=O)(=O)O)[C@H](OS(=O)(=O)O)[C@@H](OS(=O)(=O)O)[C@@H]2OS(=O)(=O)O)[C@H](OS(=O)(=O)O)[C@@H](OS(=O)(=O)O)[C@H]1OS(=O)(=O)O [Raffinose Poly(H--)sulfate Sodium Salt, Raffinose Poly(H-)sulfate Sodium Salt]
In Vitro Activity 026 (activity in wells) ([1]; Sodium Salt): 9 wells | In Vitro Activity 036 ([3]; Sodium Salt): 1 wells

O=S(=O)(O)OC[C@H]1O[C@H](OC[C@H]2O[C@H](OC[C@H]3O[C@H](O[C@]4(COS(=O)(=O)O)O[C@H](COS(=O)(=O)O)[C@@H](OS(=O)(=O)O)[C@@H]4OS(=O)(=O)O)[C@H](OS(=O)(=O)O)[C@@H](OS(=O)(=O)O)[C@@H]3OS(=O)(=O)O)[C@H](OS(=O)(=O)O)[C@@H](OS(=O)(=O)O)[C@H]2OS(=O)(=O)O)[C@H](OS(=O)(=O)O)[C@@H](OS(=O)(=O)O)[C@H]1OS(=O)(=O)O [Stachyose Poly(H--)sulfate Sodium Salt, Stachyose Poly(H-)sulfate Sodium Salt]
In Vitro Activity 026 (activity in wells) ([1]; Sodium Salt): 13 wells and 11 wells | In Vitro Activity 035 [2]: N | In Vitro Activity 036 ([3]; Sodium Salt): 4 wells and 2 wells | In Vivo Activity (Guinea Pig) Percent Inhibition ([4]; intraperitoneal, Time (Hours) 30): -47% | In Vivo Activity (Guinea Pig) Percent Inhibition ([4]; intraperitoneal, Time (Hours) 60): -56% | In Vivo Activity (Guinea Pig) Percent Inhibition ([4]; intraperitoneal, Time (Hours) 120): -65% | In Vivo Activity (Guinea Pig) Percent Inhibition ([4]; intravenous, Time (Hours) 2): -86% | In Vivo Activity (Guinea Pig) Percent Inhibition ([4]; intravenous, Time (Hours) 30): -93% | In Vivo Activity (Guinea Pig) Percent Inhibition ([4]; intravenous, Time (Hours) 120): -17%

O=S(=O)(O)OC[C@H]1O[C@H](OC[C@H]2O[C@H](OC[C@H]3O[C@H](O[C@]4(COS(=O)(=O)O)O[C@H](COS(=O)(=O)O)[C@@H](OS(=O)(=O)O)[C@@H]4OS(=O)(=O)O)[C@H](OS(=O)(=O)O)[C@@H](OS(=O)(=O)O)[C@@H]3OS(=O)(=O)O)[C@H](OS(=O)(=O)O)[C@@H](OS(=O)(=O)O)[C@H]2OS(=O)(=O)O)[C@H](OS(=O)(=O)O)[C@@H](OS(=O)(=O)O)[C@H]1OS(=O)(=O)O [Stachyose Poly(H--)sulfate Triethylamine Salt] [Stachyose Poly(H-)sulfate Triethylamine Salt]
In Vitro Activity 026 (activity in wells) [1]: 14 wells | In Vitro Activity 035 [2]: N | In Vitro Activity 036 [3]: 2 wells

O=S(=O)(O)OC[C@H]1O[C@H](OC[C@H]2O[C@H](OC[C@H]3O[C@H](O[C@]4(COS(=O)(=O)O)O[C@H](COS(=O)(=O)O)[C@@H](OS(=O)(=O)O)[C@@H]4OS(=O)(=O)O)[C@H](OS(=O)(=O)O)[C@@H](OS(=O)(=O)O)[C@@H]3OS(=O)(=O)O)[C@H](OS(=O)(=O)O)[C@@H](OS(=O)(=O)O)[C@H]2OS(=O)(=O)O)[C@H](OS(=O)(=O)O)[C@@H](OS(=O)(=O)O)[C@H]1OS(=O)(=O)O [Stachyose Poly(H--)sulfate Trimethylamine Salt] [Stachyose Poly(H-)sulfate Trimethylamine Salt]
In Vitro Activity 026 (activity in wells) [1]: 11 wells and 12 wells | In Vitro Activity 035 [2]: N

NCCCCCC(=O)O [epsilon-aminocaproic acid]
treatment of hereditary angioneurotic edema [5]: used with success

NC[C@H]1CC[C@H](C(=O)O)CC1 [tranexamic acid]
treatment of hereditary angioneurotic edema [5]: used with success

Stachyose trisulfate
complement inhibiting activity [6]: found lacking in complement inhibiting activity

heparin
complement inhibiting activity (reported) [7]: reported as having complement inhibiting activity

pentosan polysulfo ester
complement inhibiting activity (reported) [7]: reported as having complement inhibiting activity
